Patent US20060258598A1, “Alpha-keto carbonyl calpain inhibitors” (priority 2003, published 2006)

Legend:
human μ-calpain = molecular target: T1, human μ-calpain (Homo sapiens, UniProt P07384); assay: Enzymatic calpain inhibition assay; assay type: biochemical; conditions: substrate Suc-Leu-Tyr-AMC, read-out: Calp I IC50
T1 construct: purchased Calbiochem
T1 sequence (P07384 1-714): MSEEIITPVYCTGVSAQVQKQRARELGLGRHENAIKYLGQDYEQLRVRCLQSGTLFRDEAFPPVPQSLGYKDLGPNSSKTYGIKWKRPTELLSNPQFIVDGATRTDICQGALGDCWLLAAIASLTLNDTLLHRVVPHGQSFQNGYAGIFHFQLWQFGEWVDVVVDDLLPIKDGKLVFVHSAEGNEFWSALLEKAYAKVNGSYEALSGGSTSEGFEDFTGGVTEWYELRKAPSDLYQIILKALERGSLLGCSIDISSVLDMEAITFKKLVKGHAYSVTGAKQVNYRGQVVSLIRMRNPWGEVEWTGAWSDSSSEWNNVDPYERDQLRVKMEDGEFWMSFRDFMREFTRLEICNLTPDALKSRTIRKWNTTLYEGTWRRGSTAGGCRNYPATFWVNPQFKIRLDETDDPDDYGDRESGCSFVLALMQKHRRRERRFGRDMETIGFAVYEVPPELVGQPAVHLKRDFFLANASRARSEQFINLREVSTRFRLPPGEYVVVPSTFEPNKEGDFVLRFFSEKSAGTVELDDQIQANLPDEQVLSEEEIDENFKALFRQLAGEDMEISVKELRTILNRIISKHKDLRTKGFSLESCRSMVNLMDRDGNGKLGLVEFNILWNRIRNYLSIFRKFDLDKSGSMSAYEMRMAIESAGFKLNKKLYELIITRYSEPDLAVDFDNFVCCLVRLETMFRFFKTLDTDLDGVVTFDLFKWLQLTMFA
T1 sequence (P04632 1-268 partner): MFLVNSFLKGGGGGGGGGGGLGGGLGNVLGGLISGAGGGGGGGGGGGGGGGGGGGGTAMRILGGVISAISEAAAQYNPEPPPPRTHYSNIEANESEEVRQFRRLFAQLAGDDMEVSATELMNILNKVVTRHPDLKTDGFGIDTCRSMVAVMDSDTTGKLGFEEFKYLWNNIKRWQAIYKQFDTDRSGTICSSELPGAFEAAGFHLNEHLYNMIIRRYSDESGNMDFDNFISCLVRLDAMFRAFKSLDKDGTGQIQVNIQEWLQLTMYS
Description: The Ki value was also determined in some cases. These criteria were used to measure the inhibitory effect of the compounds (I) on calpain I, calpain II and cathepsin B.
Enzymatic Calpain Inhibition Assay
The inhibitory properties of calpain inhibitors are tested in 100 μl of a buffer containing 100 mM imidazole pH 7.5, 5 mM L-Cystein-HCl, 5 mM CaCl2, 250 μM of the calpain fluorogenic substrate Suc-Leu-Tyr-AMC (Sigma) (Sasaki et al., J. Biol. Chem., 1984, 259, 12489-12949) dissolved in 2.5 μl DMSO and 0.5 μg of human μ-calpain (Calbiochem). The inhibitors dissolved in 1 μl DMSO are added to the reaction buffer. The fluorescence of the cleavage product 7-amino-4-methylcoumarin (AMC) is followed in a SPECTRAmax GEMINI XS (Molecular Device) fluorimeter at λex=360 nm and λem=440 nm at 30° C. during 30 min at intervals of 30 sec in 96-well plates (Greiner). The initial reaction velocity at different inhibitor concentrations is plotted against the inhibitor concentration and the IC50 values determined graphically.

[1] = test system: cellular calpains in C2C12 myoblasts; assay: Calpain inhibition assay in C2C12 myoblasts; assay type: cell-based; conditions: 2 h incubation, calcium ionophore Br-A-23187, read-out: Calp I IC50 Myoblast
Description: Calpain Inhibition Assay in C2C12 Myoblasts
This assay is aimed at monitoring the ability of the substance to inhibit cellular calpains. C2C12 myoblasts are grown in 96-well plates in growth medium (DMEM, 20% foetal calf serum) until they reach confluency. The growth medium is then replaced by fusion medium (DMEM, 5% horse serum). 24 hours later the fusion medium is replaced by fusion medium containing the test substances dissolved in 1 μl DMSO. After 2 hours of incubation at 37° C. the cells are loaded with the calpain fluorogenic substrate Suc-Leu-Tyr-AMC at 400 μM in 50 μl of a reaction buffer containing 135 mM NaCl; 5 mM KCl; 4 mM CaCl2; 1 mM MgCl2; 10 mM Glucose; 10 mM HEPES pH 7.25 for 20 min at room temperature. The calcium influx, necessary to activate the cellular calpains, is evoked by the addition of 50 μl reaction buffer containing 20 μM of the calcium ionophore Br-A-23187 (Molecular Probes). The fluorescence of the cleavage product AMC is measured as described above during 60 min at 37° C. at intervals of 1 min. The IC50 values are determined as described above. Comparison of the IC50 determined in the enzymatic calpain inhibition assay to the IC50 determined in the C2C12 myoblasts calpain inhibiton assay, allows to evaluate the cellular uptake or the membrane permeability of the substance.

[2] = test system: Primary fibroblasts from donors with Friedreich Ataxia (FRDA); assay: BSO assay (cell viability under BSO-induced oxidative stress); assay type: cell-based, human; conditions: 24 h preincubation, 1 mM BSO; for EC50: Homo sapiens, Fibroblast
Description: Primary fibroblasts were derived from donors with molecular diagnosis for Friedreich Ataxia (FRDA) and control donors with no mitochondrial disease. Cell lines were obtained from Coriell Cell Repositories (Camden, N.J.; catalog numbers GM04078, GM08402 and GM08399 respectively). All cell types were diagnosed on the molecular level for intronic […] triplet repeat length of at least 400-450 repeats using a PCR-based method. Experiments were carried out as described in the literature (M. L. Jauslin et al., Human Mol. Genet., 2002, 11, 3055-3063): Cells were seeded in microtiter plates at a density of 4'000 cells per 100 μl in growth medium consisting of 25% (v/v) M199 EBS and 64% (v/v) MEM EBS without phenol red (Bioconcept, Allschwil, Switzerland) supplemented with 10% (v/v) fetal calf serum (PAA Laboratories, Linz, Austria), 100 U/ml penicillin, 100 μg/ml streptomycin (PAA Laboratories, Linz, Austria), 10 μg/ml insulin (Sigma, Buchs, Switzerland), 10 ng/ml EGF (Sigma, Buchs, Switzerland), 10 ng/ml bFGF (PreproTech, Rocky Hill, N.J.) and 2 mM glutamine (Sigma, Buchs, Switzerland). The cells were incubated in the presence of various test compounds for 24 h before addition of L-buthionine-(S,R)-sulfoximine (BSO) to a final concentration of 1 mM. Cell viability was measured after the first signs of toxicity appeared in the BSO-treated controls (typically after 16 to 48 h). The cells were stained for 60 min at room temperature in PBS with 1.2 μM calcein AM and 4 μM ethidium homodimer (Live/Dead assay, Molecular Probes, Eugene, Oreg.). Fluorescence intensity was measured with a Gemini Spectramax XS spectrofluorimeter (Molecular Devices, Sunnyvale, Calif.) using excitation and emission wavelengths of 485 nm and 525 nm respectively.

Row | SMILES | IC50 (human μ-calpain) [nM] | IC50 [1] [nM] | EC50 [2] [nM] | BSO EC50 [2]
1 | CCNC(=O)C(=O)[C@H](Cc1ccc(F)cc1)NC(=O)[C@@H](NC(=O)CCCCC1CCSS1)C(C)C (stereo partly drawn) [Example 37] | 100 | 2500 | – | inactive
2 | CCNC(=O)C(=O)[C@H](Cc1ccc(F)cc1)NC(=O)[C@@H](NC(=O)CCCCC1CCS[S+]1[O-])C(C)C (stereo partly drawn) [Example 38] | 180 | 7000 | 20000 | –
3 | CCNC(=O)C(=O)[C@H](Cc1ccc(Br)cc1)NC(=O)[C@@H](NC(=O)CCCCC1CCS[S+]1[O-])C(C)C (stereo partly drawn) [Example 54] | 150 | 8000 | 5000 | –
4 | CCNC(=O)C(=O)[C@H](Cc1ccc(Br)cc1)NC(=O)[C@@H](NC(=O)CCCCC1CCSS1)C(C)CC (stereo partly drawn) [Example 74] | 180 | 9000 | 3000 | –
5 | CCNC(=O)C(=O)[C@H](Cc1ccc(O)cc1)NC(=O)[C@H](CC(C)C)NC(=O)CCCCC1CCSS1 (stereo partly drawn) [Example 82] | 40 | 10000 | 15000 | –
6 | CCNC(=O)C(=O)[C@H](Cc1ccc(OC)cc1)NC(=O)[C@@H](NC(=O)CCCCC1CCSS1)C(C)C (stereo partly drawn) [Example 84] | 400 | 4000 | 2000 | –
7 | CCNC(=O)C(=O)[C@H](Cc1ccc(OC)cc1)NC(=O)[C@H](CC(C)C)NC(=O)CCCCC1CCS[S+]1[O-] (stereo partly drawn) [Example 95] | 35 | 2500 | 10000 | –
8 | CCNC(=O)C(=O)[C@H](Cc1ccc(C)cc1)NC(=O)[C@H](CC(C)C)NC(=O)CCCCC1CCS[S+]1[O-] (stereo partly drawn) [Example 111] | 25 | 1200 | 3000 | –
9 | CCNC(=O)C(=O)[C@H](Cc1ccc(C(F)(F)F)cc1)NC(=O)[C@@H](NC(=O)CCCCC1CCSS1)C(C)C (stereo partly drawn) [Example 122] | 200 | 1100 | 5000 | –
10 | CCNC(=O)C(=O)[C@H](Cc1ccc(C#N)cc1)NC(=O)[C@@H](NC(=O)CCCCC1CCSS1)C(C)C (stereo partly drawn) [Example 130] | 120 | 5000 | 20000 | –
11 | CCNC(=O)C(=O)[C@H](Cc1ccc(C#N)cc1)NC(=O)[C@@H](NC(=O)CCCCC1CCS[S+]1[O-])C(C)C (stereo partly drawn) [Example 131] | 180 | 7500 | 30000 | –
12 | CCNC(=O)C(=O)[C@H](Cc1ccc(C#N)cc1)NC(=O)[C@H](CC(C)C)NC(=O)CCCCC1CCSS1 (stereo partly drawn) [Example 132] | 30 | 1700 | 5000 | –
13 | CCNC(=O)C(=O)[C@H](Cc1ccc(C#N)cc1)NC(=O)[C@H](CC(C)C)NC(=O)CCCCC1CCS[S+]1[O-] (stereo partly drawn) [Example 133] | 50 | 2500 | 15000 | –
14 | CCNC(=O)C(=O)[C@H](Cc1ccccc1)NC(=O)[C@H](CC(C)C)NC(=O)CCCCC1CCS[S+]1[O-] (stereo partly drawn) [Example 142] | 100 | 20000 | 3000 | –

Further molecules by falling IC50 (human μ-calpain), results first:

Row | IC50 (human μ-calpain) [nM] | IC50 [1] [nM] | SMILES | EC50 [2] [nM] | BSO EC50 [2]
15 | 750 | 9000 | CCNC(=O)C(=O)[C@H](Cc1ccc(Br)cc1)NC(=O)[C@@H](NC(=O)CCCCC1CCS[S+]1[O-])C(C)CC (stereo partly drawn) [Example 75] | 6000 | –
16 | 300 | 1000 | CCNC(=O)C(=O)[C@H](Cc1ccc(C)cc1)NC(=O)[C@@H](NC(=O)CCCCC1CCSS1)C(C)CC (stereo partly drawn) [Example 116] | 2000 | –
17 | 150 | 2500 | CCNC(=O)C(=O)[C@H](Cc1ccc(O)cc1)NC(=O)[C@@H](NC(=O)CCCCC1CCSS1)C(C)C (stereo partly drawn) [Example 80] | 6000 | –
18 | 120 | 10000 | CCNC(=O)C(=O)[C@H](Cc1ccccc1)NC(=O)[C@H](CC(C)(C)C)NC(=O)CCCCC1CCSS1 (stereo partly drawn) [Example 143] | 2000 | –
19 | 100 | 15000 | CCNC(=O)C(=O)[C@H](Cc1cccc(C(F)(F)F)c1)NC(=O)[C@H](CC(C)C)NC(=O)CCCCC1CCSS1 (stereo partly drawn) [Example 128] | 20000 | –
20 | 80 | 900 | CCNC(=O)C(=O)[C@H](Cc1ccc(OC)cc1)NC(=O)[C@@H](NC(=O)CCCCC1CCS[S+]1[O-])C(C)C (stereo partly drawn) [Example 85] | 5000 | –
21 | 80 | 1000 | CCNC(=O)C(=O)[C@H](Cc1ccc(C)cc1)NC(=O)[C@@H](NC(=O)CCCCC1CCS[S+]1[O-])C(C)C (stereo partly drawn) [Example 105] | 200 | –
22 | 80 | 3500 | CCNC(=O)C(=O)[C@H](Cc1ccccc1)NC(=O)[C@@H](NC(=O)CCCCC1CCSS1)C(C)C (stereo partly drawn) [Example 138] | 10000 | –
23 | 80 | 5000 | CCNC(=O)C(=O)[C@H](Cc1ccccc1)NC(=O)[C@H](CC(C)(C)C)NC(=O)CCCCC1CCS[S+]1[O-] (stereo partly drawn) [Example 144] | 7000 | –
24 | 50 | 4000 | CCNC(=O)C(=O)[C@H](Cc1cccc(C(F)(F)F)c1)NC(=O)[C@H](CC(C)C)NC(=O)CCCCC1CCS[S+]1[O-] (stereo partly drawn) [Example 129] | 2000 | –
25 | 40 | 5000 | CCNC(=O)C(=O)[C@H](Cc1ccc(Cl)cc1Cl)NC(=O)[C@H](CC(C)C)NC(=O)CCCCC1CCS[S+]1[O-] (stereo partly drawn) [Example 36] | 3000 | –
26 | 35 | 15000 | CCNC(=O)C(=O)[C@H](Cc1ccc(F)cc1)NC(=O)[C@H](CC(C)C)NC(=O)CCCCC1CCS[S+]1[O-] (stereo partly drawn) [Example 40] | 3000 | –
27 | 20 | 8000 | CCNC(=O)C(=O)[C@H](Cc1ccc([N+](=O)[O-])cc1)NC(=O)[C@H](CC(C)C)NC(=O)CCCCC1CCSS1 (stereo partly drawn) [Example 136] | – | inactive
